From patent US8927538B2, “Carbazole linked pyrrolo[2,1-c][1,4]benzodiazefine hybrids as potential anticancer agents and process for the preparation thereof” (Council of Scientific & Industrial Research, priority 2010, dated 2015)

Assays:
[1] = tested on: prostate cancer cell lines; test: NCI SRB cytotoxicity, prostate panel; assay type: cell-based, human; conditions: average of cell lines
Source text: (§1) The C8-linked carbazole-PBD hybrids have been tested against sixty human tumour cell lines derived from nine cancer types (leukemia, non-small cell lung cancer, colon cancer, CNS cancer, melanoma, ovarian cancer, renal cancer, prostate cancer and breast cancer) as per NCI protocol, For each compound, dose response curves for individual cell lines have been measured at a minimum of five concentrations at 10 fold dilutions. A protocol of 48 hrs continuous drug exposure has been used, and a sulforhodamine B (SRB) protein assay was used to estimate cell viability or growth. The concentration for 50% cell growth inhibition (GI50), total cell growth inhibition (TGI, 0% growth) and 50% cell death (LC50, […]) compared with the control has been calculated (Table-3).
(§2) Compounds 6c and 14a have been evaluated for in vitro cytotoxicity in sixty cell lines from nine human cancer types of lung (Hop-62, NCI-H226, NCI-H522), leukemia (K-562, SR), colon (HCT-116, HCT-15, HCC-2998), CNS(SF-539), melanoma (SK-MEL-5, UACC-62, M14), ovarian (IGROV1), renal (A498), prostate (PC3) breast (BT-549, MDA-MB-435, HS578T) origin. The results are expressed as percent of cell growth determined relative to that of untreated control cells (Table 1).

[2] = tested on: IGROV1; test: NCI SRB cytotoxicity, IGROV1; assay type: cell-based, human; conditions: Ovarian IGROV1, 48 hrs exposure
Source text: as §1, §2

[3] = tested on: MDA-MB-; test: NCI SRB cytotoxicity, MDA-MB-; assay type: cell-based, human; conditions: Breast MDA-MB-, 48 hrs exposure
Source text: as §1, §2

[4] = tested on: 786-0; test: NCI SRB cytotoxicity, 786-0; assay type: cell-based, human; conditions: Renal 786-0, 48 hrs exposure
Source text: as §1, §2

[5] = tested on: CAKI-1; test: NCI SRB cytotoxicity, CAKI-1; assay type: cell-based, human; conditions: Renal CAKI-1, 48 hrs exposure
Source text: as §1, §2

[6] = tested on: OVCAR-3; test: NCI SRB cytotoxicity, OVCAR-3; assay type: cell-based, human; conditions: Ovarian OVCAR-3, 48 hrs exposure
Source text: as §1, §2

[7] = tested on: Leukemia cancer cell lines; test: NCI SRB cytotoxicity, leukemia panel; assay type: cell-based, human; conditions: average of six to eight cell lines
Source text: as §1, §2

[8] = tested on: SF-539; test: NCI SRB cytotoxicity, SF-539; assay type: cell-based, human; conditions: CNS SF-539, 48 hrs exposure
Source text: as §1, §2

[9] = tested on: RXF 393; test: NCI SRB cytotoxicity, RXF 393; assay type: cell-based, human; conditions: Renal RXF 393, 48 hrs exposure
Source text: as §1, §2

[10] = tested on: HOP-92; test: NCI SRB cytotoxicity, HOP-92; assay type: cell-based, human; conditions: Non-small cell lung HOP-92, 48 hrs exposure
Source text: as §1, §2

[11] = tested on: breast cancer cell lines; test: NCI SRB cytotoxicity, breast panel; assay type: cell-based, human; conditions: average of six to eight cell lines
Source text: as §1, §2

[12] = tested on: MDA-MB-435; test: NCI SRB cytotoxicity, MDA-MB-435; assay type: cell-based, human; conditions: Breast MDA-MB-435, 48 hrs exposure
Source text: as §1, §2

[13] = tested on: SK-MEL-2; test: NCI SRB cytotoxicity, SK-MEL-2; assay type: cell-based, human; conditions: Melanoma SK-MEL-2, 48 hrs exposure
Source text: as §1, §2

[14] = tested on: SNB-19; test: NCI SRB cytotoxicity, SNB-19; assay type: cell-based, human; conditions: CNS SNB-19, 48 hrs exposure
Source text: as §1, §2

[15] = tested on: SNB-75; test: NCI SRB cytotoxicity, SNB-75; assay type: cell-based, human; conditions: CNS SNB-75, 48 hrs exposure
Source text: as §1, §2

[16] = tested on: HOP-62; test: NCI SRB cytotoxicity, HOP-62; assay type: cell-based, human; conditions: Non-small cell lung HOP-62, 48 hrs exposure
Source text: as §1, §2

[17] = tested on: ovarian cancer cell lines; test: NCI SRB cytotoxicity, ovarian panel; assay type: cell-based, human; conditions: average of six to eight cell lines
Source text: as §1, §2

[18] = tested on: HCC-2998; test: NCI SRB cytotoxicity, HCC-2998; assay type: cell-based, human; conditions: Colon HCC-2998, 48 hrs exposure
Source text: as §1, §2

[19] = tested on: UACC-62; test: NCI SRB cytotoxicity, UACC-62; assay type: cell-based, human; conditions: Melanoma UACC-62, 48 hrs exposure
Source text: as §1, §2

[20] = tested on: HCT-116; test: NCI SRB cytotoxicity, HCT-116; assay type: cell-based, human; conditions: Colon HCT-116, 48 hrs exposure
Source text: as §1, §2

[21] = tested on: CNS cancer cell lines; test: NCI SRB cytotoxicity, CNS panel; assay type: cell-based, human; conditions: average of six to eight cell lines
Source text: as §1, §2

[22] = tested on: sixty human tumour cell lines derived from nine cancer types; test: NCI in vitro cytotoxicity screen (SRB), sixty cell lines; assay type: cell-based; conditions: for GI50: 48 hrs continuous drug exposure, SRB, read-out: GI50 against sixty cell lines in nine cancer cell panels; for in vitro cytotoxicity: sixty cell lines from nine human cancer types
Source text: as §1, §2

[23] = tested on: UACC-257; test: NCI SRB cytotoxicity, UACC-257; assay type: cell-based, human; conditions: Melanoma UACC-257, 48 hrs exposure
Source text: as §1, §2

[24] = tested on: HCT-15; test: NCI SRB cytotoxicity, HCT-15; assay type: cell-based, human; conditions: Colon HCT-15, 48 hrs exposure
Source text: as §1, §2

[25] = tested on: Renal cancer cell lines; test: NCI SRB cytotoxicity, renal panel; assay type: cell-based, human; conditions: average of six to eight cell lines
Source text: as §1, §2

[26] = tested on: HL-60(TB); test: NCI SRB cytotoxicity, HL-60(TB); assay type: cell-based, human; conditions: Leukemia HL-60(TB), 48 hrs exposure
Source text: as §1, §2

[27] = tested on: COLO 205; test: NCI SRB cytotoxicity, COLO 205; assay type: cell-based, human; conditions: Colon COLO 205, 48 hrs exposure
Source text: as §1, §2

[28] = tested on: EKVX; test: NCI SRB cytotoxicity, EKVX; assay type: cell-based, human; conditions: Non-small cell lung EKVX, 48 hrs exposure
Source text: as §1, §2

[29] = tested on: HS 578T; test: NCI SRB cytotoxicity, HS 578T; assay type: cell-based, human; conditions: Breast HS 578T, 48 hrs exposure
Source text: as §1, §2

[30] = tested on: CCRF-CEM; test: NCI SRB cytotoxicity, CCRF-CEM; assay type: cell-based, human; conditions: Leukemia CCRF-CEM, 48 hrs exposure
Source text: as §1, §2

[31] = tested on: Non small cell lung cancer cell lines; test: NCI SRB cytotoxicity, non-small cell lung panel; assay type: cell-based, human; conditions: average of six to eight cell lines
Source text: as §1, §2

[32] = against nine human tumor cell lines

**Q.** Which results are given for `COc1cc2c(cc1OCCCCCn1c3ccccc3c3ccccc31)N=C[C@@H]1CCCN1C2=O` [Compound 6c, 7-Methoxy-8-[5-(9H-9-carbazoly)pentyloxy]-(11aS)-1,2,3,11a-tetrahydro-5H-Pyrrolo[2,1-c][1,4]benzodiazepin-5-one]?
**A.** Log10 GI50 [1]: −5.64 mol/L; Log10 LC50 (concentration causing 50% lethality) [1]: −4.50 mol/L; GI50 [2]: 2080 nM; GI50 [3]: 2140 nM; GI50 [4]: 1730 nM; GI50 [5]: 1930 nM; GI50 [6]: 1880 nM; Log10 GI50 [7]: −5.56 mol/L; Log10 LC50 (concentration causing 50% lethality) [7]: −4.18 mol/L; GI50 [8]: 1850 nM; GI50 [9]: 4340 nM; GI50 [10]: 1310 nM; Log10 GI50 [11]: −5.67 mol/L; Log10 LC50 (concentration causing 50% lethality) [11]: −4.47 mol/L; GI50 [12]: 1730 nM; GI50 [13]: 1670 nM; GI50 [14]: 2050 nM; GI50 [15]: 1050 nM; GI50 [16]: 1800 nM; Log10 GI50 [17]: −5.57 mol/L; Log10 LC50 (concentration causing 50% lethality) [17]: −4.59 mol/L; GI50 [18]: 1710 nM; GI50 [19]: 1860 nM; GI50 [20]: 1650 nM; Log10 GI50 [21]: −5.76 mol/L; Log10 LC50 (concentration causing 50% lethality) [21]: −4.97 mol/L; GI50 [22]: 1030 nM; log10 GI50 mean graph midpoint value [22, 32]: −5.67 mol/lit; log10 LC50 mean graph midpoint value [22, 32]: −4.67 mol/lit; log10 TGI mean graph midpoint value [22, 32]: −5.29 mol/lit; Log10 GI50 mean graph midpoint (MG_MID) ([22]; human tumour cell lines): −5.67; Log10 LC50 mean graph midpoint (MG_MID) ([22]; human tumour cell lines): −4.67; Log10 TGI mean graph midpoint (MG_MID) ([22]; human tumour cell lines): −5.29; in vitro cytotoxicity [22]: significant cytotoxicity against some cancer cell lines; GI50 [23]: 2290 nM; GI50 [24]: 1670 nM; Log10 LC50 (concentration causing 50% lethality) [25]: −4.99 mol/L; GI50 [26]: 1720 nM; GI50 [27]: 2110 nM; GI50 [28]: 5270 nM; GI50 [29]: 1970 nM; GI50 [30]: 1970 nM; Log10 GI50 [31]: −5.64 mol/L; Log10 LC50 (concentration causing 50% lethality) [31]: −4.78 mol/L

**Q.** `COc1cc2c(cc1OCCCN1CCN(CCCn3c4ccccc4c4ccccc43)CC1)N=C[C@@H]1CCCN1C2=O` [Compound 14a] was tested. Which “Log10 GI50” value [1] did it give?
**A.** −7.42 mol/L

**Q.** And the “Log10 LC50 (concentration causing 50% lethality)” value [1]?
**A.** −5.59 mol/L

**Q.** What about the GI50 [2] of the same compound?
**A.** < 10 nM

**Q.** What about the GI50 [3] of the same compound?
**A.** 950 nM

**Q.** What about the GI50 [4] of the same compound?
**A.** 190 nM

**Q.** What about the GI50 [5] of the same compound?
**A.** 120 nM

**Q.** And the GI50 [6]?
**A.** 69 nM

**Q.** What about the “Log10 GI50” value [7] of the same compound?
**A.** −7.55 mol/L

**Q.** And the GI50 [8]?
**A.** 120 nM

**Q.** And the GI50 [9]?
**A.** 220 nM

**Q.** And the GI50 [10]?
**A.** 270 nM

**Q.** And the “Log10 GI50” value [11]?
**A.** −6.96 mol/L

**Q.** What about the “Log10 LC50 (concentration causing 50% lethality)” value [11] of the same compound?
**A.** −5.59 mol/L

**Q.** What about the GI50 [12] of the same compound?
**A.** < 10 nM

**Q.** What about the GI50 [13] of the same compound?
**A.** 190 nM

**Q.** And the GI50 [14]?
**A.** 210 nM

**Q.** And the GI50 [15]?
**A.** 150 nM

**Q.** What about the GI50 [16] of the same compound?
**A.** 80 nM

**Q.** What about the “Log10 GI50” value [17] of the same compound?
**A.** −7.22 mol/L

**Q.** And the “Log10 LC50 (concentration causing 50% lethality)” value [17]?
**A.** −5.80 mol/L

**Q.** And the GI50 [18]?
**A.** 130 nM

**Q.** And the GI50 [19]?
**A.** 150 nM

**Q.** What about the GI50 [20] of the same compound?
**A.** 60 nM

**Q.** What about the “Log10 GI50” value [21] of the same compound?
**A.** −6.96 mol/L

**Q.** What about the “Log10 LC50 (concentration causing 50% lethality)” value [21] of the same compound?
**A.** −5.67 mol/L

**Q.** And the GI50 [22]?
**A.** < 10 nM

**Q.** What about the “activity of 14a compared with 6c” value ([22]; GI50 comparison) of the same compound?
**A.** ten folds higher activity than 6c

**Q.** And the “Log10 TGI mean graph midpoint (MG_MID)” value ([22]; human tumour cell lines)?
**A.** −6.24

**Q.** And the “in vitro cytotoxicity” value [22]?
**A.** significant cytotoxicity against some cancer cell lines

**Q.** And the GI50 [23]?
**A.** 150 nM

**Q.** And the GI50 [24]?
**A.** 280 nM

**Q.** And the “Log10 GI50” value [25]?
**A.** −6.72 mol/L

**Q.** And the “Log10 LC50 (concentration causing 50% lethality)” value [25]?
**A.** −5.61 mol/L

**Q.** And the GI50 [26]?
**A.** 30 nM

**Q.** And the GI50 [27]?
**A.** 70 nM

**Q.** What about the GI50 [28] of the same compound?
**A.** 140 nM

**Q.** And the GI50 [29]?
**A.** 160 nM

**Q.** And the GI50 [30]?
**A.** 20 nM

**Q.** What about the “Log10 GI50” value [31] of the same compound?
**A.** −6.96 mol/L

**Q.** And the “Log10 LC50 (concentration causing 50% lethality)” value [31]?
**A.** −5.62 mol/L
